Key:
[1] = Caco2 assay (permeability, Papp A-B); format: in vitro ADME; settings: human, Caco-2, absorptive direction (A-B), 50 μM test compound, 4% BSA in receiver
In short: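 Caco-2 monolayers, 22-25 days on Transwells, TEER 300 Ω·cm^2, dosed apically with 50 μM compound in HBSS; basolateral HBSS with 4% BSA. 120 min at 37 °C, samples quantified by LCMS; Papp (A-B) from receiver-side cumulative flux slope, donor volume, surface area and initial donor amount.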

KRAS G12V = KRAS G12V (Homo sapiens, UniProt P01116, G12V); assay: GDP-GTP exchange assay (KRAS G12V); format: biochemical; settings: bodipy-GDP/GppNHp exchange with SOS1; 3 h incubation after GppNHp-SOS1;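 also: one dagger IC50 up to 100 nM and two daggers above 100 nM up to 1 μM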
Chain of KRAS G12V (P01116 1-188 isoform P01116-2 G12V): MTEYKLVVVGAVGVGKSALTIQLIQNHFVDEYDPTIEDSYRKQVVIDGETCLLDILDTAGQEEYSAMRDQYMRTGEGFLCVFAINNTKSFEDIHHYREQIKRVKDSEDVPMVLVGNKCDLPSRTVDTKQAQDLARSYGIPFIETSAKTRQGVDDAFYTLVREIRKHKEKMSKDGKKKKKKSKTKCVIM
In short: (§1)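 Bodipy-GDP-loaded KRAS (2.5 nM final) was pre-incubated 4 h at r.t. with inhibitor in Hepes pH 7.5 buffer with MgCl2, then exchange started with GppNHp (500 μM) and SOS1 (150 nM) final. Fluorescence (ex 485/em 520 nm) read after 2 h for G12D, 3 h for G12V; IC50 from four-parameter logistic fit.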

KRAS G12D = KRAS G12D (Homo sapiens, UniProt P01116, G12D); assay: GDP-GTP exchange assay (KRAS G12D); format: biochemical; settings: bodipy-GDP/GppNHp exchange with SOS1; 4 h pre-incubation, 2 h reaction;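 also: one dagger IC50 up to 100 nM and two daggers above 100 nM up to 1 μM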
Chain of KRAS G12D (P01116 1-188 isoform P01116-2 G12D): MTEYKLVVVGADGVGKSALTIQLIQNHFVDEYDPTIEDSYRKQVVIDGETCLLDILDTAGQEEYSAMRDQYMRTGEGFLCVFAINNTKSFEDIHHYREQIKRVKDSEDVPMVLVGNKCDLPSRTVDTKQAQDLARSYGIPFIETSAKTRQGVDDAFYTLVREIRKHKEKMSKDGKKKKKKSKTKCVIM
In short: as §1

COc1cc(N2C[C@@H]3C[C@H](C2)N(C(=O)C2CC2)[C@H]3c2cc3c(C)nc4c(F)c(-c5cccc(Cl)c5Cl)c(CCC#N)cc4c3n2[C@H]2[C@H]3CN[C@@H]2C3)cc(C)n1 (atropisomer, axis not shown; (Ra)) [Example 78, 3-((Ra)-1-((1R,4R,5S)-2-azabicyclo[2.1.1]hexan-5-yl)-2-((1S,5R,7R)-6-(cyclopropanecarbonyl)-3-(2-methoxy-6-methylpyridin-4-yl)-3,6-diazabicyclo[3.2.1]octan-7-yl)-7-(2,3-dichlorophenyl)-6-fluoro-4-methyl-1H-pyrrolo[3,2-c]quinolin-8-yl)propanenitrile]
Papp A→B at 120 min, 50 μM [1]: ≤ 5 nm/s
G12V_exchange (KRAS_G12V exchange assay IC50) (KRAS G12V): †
G12D_exchange (KRAS_G12D exchange assay IC50) (KRAS G12D): †

Cc1cc(N2C[C@@H]3C[C@H](C2)N(C(=O)C2CC2)[C@H]3c2cc3c(C)nc4c(F)c(-c5cccc(Cl)c5Cl)c(CCC#N)cc4c3n2[C@H]2[C@H]3CN[C@@H]2C3)cc(F)n1 (atropisomer, axis not shown; (Ra)) [Example 79, 3-((Ra)-1-((1R,4R,5S)-2-azabicyclo[2.1.1]hexan-5-yl)-2-((1S,5R,7R)-6-(cyclopropanecarbonyl)-3-(2-fluoro-6-methylpyridin-4-yl)-3,6-diazabicyclo[3.2.1]octan-7-yl)-7-(2,3-dichlorophenyl)-6-fluoro-4-methyl-1H-pyrrolo[3,2-c]quinolin-8-yl)propanenitrile]
Papp A→B at 120 min, 50 μM [1]: ≤ 5 nm/s
G12V_exchange (KRAS_G12V exchange assay IC50) (KRAS G12V): †
G12D_exchange (KRAS_G12D exchange assay IC50) (KRAS G12D): †

Cc1cc(N2C[C@@H]3C[C@H](C2)N(C(=O)C2CC2)[C@H]3c2cc3c(C)nc4c(F)c(-c5cccc(Cl)c5Cl)c(CCC#N)cc4c3n2[C@H]2[C@H]3CN[C@@H]2C3)cc(=O)o1 (atropisomer, axis not shown; (Ra)) [Example 80]
Papp A→B at 120 min, 50 μM [1]: ≤ 5 nm/s
G12V_exchange (KRAS_G12V exchange assay IC50) (KRAS G12V): †
G12D_exchange (KRAS_G12D exchange assay IC50) (KRAS G12D): †

CCOc1cc(N2C[C@@H]3C[C@H](C2)N(C(=O)C2CC2)[C@H]3c2cc3c(C)nc4c(F)c(-c5cccc(Cl)c5Cl)c(CCC#N)cc4c3n2[C@H]2[C@H]3CN[C@@H]2C3)ccn1 (atropisomer, axis not shown; (Ra)) [Example 81, 3-((Ra)-1-((1R,4R,5S)-2-azabicyclo[2.1.1]hexan-5-yl)-2-((1S,5R,7R)-6-(cyclopropanecarbonyl)-3-(2-ethoxypyridin-4-yl)-3,6-diazabicyclo[3.2.1]octan-7-yl)-7-(2,3-dichlorophenyl)-6-fluoro-4-methyl-1H-pyrrolo[3,2-c]quinolin-8-yl)propanenitrile]
Papp A→B at 120 min, 50 μM [1]: ≤ 5 nm/s
G12V_exchange (KRAS_G12V exchange assay IC50) (KRAS G12V): †
G12D_exchange (KRAS_G12D exchange assay IC50) (KRAS G12D): †

COCCOc1cc(N2C[C@@H]3C[C@H](C2)N(C(=O)C2CC2)[C@H]3c2cc3c(C)nc4c(F)c(-c5cccc(Cl)c5Cl)c(CCC#N)cc4c3n2[C@H]2[C@H]3CN[C@@H]2C3)ccn1 (atropisomer, axis not shown; (Ra)) [Example 83, 3-((Ra)-1-((1R,4R,5S)-2-azabicyclo[2.1.1]hexan-5-yl)-2-((1S,5R,7R)-6-(cyclopropanecarbonyl)-3-(2-(2-methoxyethoxy)pyridin-4-yl)-3,6-diazabicyclo[3.2.1]octan-7-yl)-7-(2,3-dichlorophenyl)-6-fluoro-4-methyl-1H-pyrrolo[3,2-c]quinolin-8-yl)propanenitrile]
Papp A→B at 120 min, 50 μM [1]: ≤ 5 nm/s
G12V_exchange (KRAS_G12V exchange assay IC50) (KRAS G12V): †
G12D_exchange (KRAS_G12D exchange assay IC50) (KRAS G12D): †

Cc1cc(N2C[C@@H]3C[C@H](C2)N(C(=O)C2CC2)[C@H]3c2cc3c(C)nc4c(F)c(-c5cccc(Cl)c5Cl)c(CCC#N)cc4c3n2[C@H]2[C@H]3CN[C@@H]2C3)cc(C(F)F)n1 (atropisomer, axis not shown; (Ra)) [Example 84, 3-((Ra)-1-((1R,4R,5S)-2-azabicyclo[2.1.1]hexan-5-yl)-2-((1S,5R,7R)-6-(cyclopropanecarbonyl)-3-(2-(difluoromethyl)-6-methylpyridin-4-yl)-3,6-diazabicyclo[3.2.1]octan-7-yl)-7-(2,3-dichlorophenyl)-6-fluoro-4-methyl-1H-pyrrolo[3,2-c]quinolin-8-yl)propanenitrile]
Papp A→B at 120 min, 50 μM [1]: ≤ 5 nm/s
G12V_exchange (KRAS_G12V exchange assay IC50) (KRAS G12V): †
G12D_exchange (KRAS_G12D exchange assay IC50) (KRAS G12D): †

Cc1nc2c(F)c(-c3cccc(Cl)c3Cl)c(CCC#N)cc2c2c1cc([C@H]1[C@H]3C[C@H](CN(c4cc(C(F)F)c(F)cn4)C3)N1C(=O)C1CC1)n2[C@H]1[C@H]2CN[C@@H]1C2 (atropisomer, axis not shown; (Ra)) [Example 85, 3-((Ra)-1-((1R,4R,5S)-2-azabicyclo[2.1.1]hexan-5-yl)-2-((1S,5R,7R)-6-(cyclopropanecarbonyl)-3-(4-(difluoromethyl)-5-fluoropyridin-2-yl)-3,6-diazabicyclo[3.2.1]octan-7-yl)-7-(2,3-dichlorophenyl)-6-fluoro-4-methyl-1H-pyrrolo[3,2-c]quinolin-8-yl)propanenitrile]
Papp A→B at 120 min, 50 μM [1]: ≤ 5 nm/s
G12V_exchange (KRAS_G12V exchange assay IC50) (KRAS G12V): †
G12D_exchange (KRAS_G12D exchange assay IC50) (KRAS G12D): †

Cc1nc2c(F)c(-c3cccc(Cl)c3Cl)c(CCC#N)cc2c2c1cc([C@H]1[C@H]3C[C@H](CN(c4cccc(OC(F)F)n4)C3)N1C(=O)C1CC1)n2[C@H]1[C@H]2CN[C@@H]1C2 (atropisomer, axis not shown; (Ra)) [Example 86, 3-((Ra)-1-((1R,4R,5S)-2-azabicyclo[2.1.1]hexan-5-yl)-2-((1S,5R,7R)-6-(cyclopropanecarbonyl)-3-(6-(difluoromethoxy)pyridin-2-yl)-3,6-diazabicyclo[3.2.1]octan-7-yl)-7-(2,3-dichlorophenyl)-6-fluoro-4-methyl-1H-pyrrolo[3,2-c]quinolin-8-yl)propanenitrile]
Papp A→B at 120 min, 50 μM [1]: ≤ 5 nm/s
G12V_exchange (KRAS_G12V exchange assay IC50) (KRAS G12V): †
G12D_exchange (KRAS_G12D exchange assay IC50) (KRAS G12D): †

Cc1nc2c(F)c(-c3cccc(Cl)c3Cl)c(CCC#N)cc2c2c1cc([C@H]1[C@H]3C[C@H](CN(c4nccc(C(F)F)n4)C3)N1C(=O)C1CC1)n2[C@H]1[C@H]2CN[C@@H]1C2 (atropisomer, axis not shown; (Ra)) [Example 87, 3-((Ra)-1-((1R,4R,5S)-2-azabicyclo[2.1.1]hexan-5-yl)-2-((1S,5R,7R)-6-(cyclopropanecarbonyl)-3-(4-(difluoromethyl)pyrimidin-2-yl)-3,6-diazabicyclo[3.2.1]octan-7-yl)-7-(2,3-dichlorophenyl)-6-fluoro-4-methyl-1H-pyrrolo[3,2-c]quinolin-8-yl)propanenitrile]
Papp A→B at 120 min, 50 μM [1]: ≤ 5 nm/s
G12V_exchange (KRAS_G12V exchange assay IC50) (KRAS G12V): †
G12D_exchange (KRAS_G12D exchange assay IC50) (KRAS G12D): †

Cc1nc2c(F)c(-c3cccc(Cl)c3Cl)c(CCC#N)cc2c2c1cc([C@H]1[C@H]3C[C@H](CN(c4cccc(C(F)F)n4)C3)N1C(=O)C1CC1)n2[C@H]1[C@H]2CN[C@@H]1C2 (atropisomer, axis not shown; (Ra)) [Example 88, 3-((Ra)-1-((1R,4R,5S)-2-azabicyclo[2.1.1]hexan-5-yl)-2-((1S,5R,7R)-6-(cyclopropanecarbonyl)-3-(6-(difluoromethyl)pyridin-2-yl)-3,6-diazabicyclo[3.2.1]octan-7-yl)-7-(2,3-dichlorophenyl)-6-fluoro-4-methyl-1H-pyrrolo[3,2-c]quinolin-8-yl)propanenitrile]
Papp A→B at 120 min, 50 μM [1]: ≤ 5 nm/s
G12V_exchange (KRAS_G12V exchange assay IC50) (KRAS G12V): †
G12D_exchange (KRAS_G12D exchange assay IC50) (KRAS G12D): †

Cc1nc2c(F)c(-c3cccc(Cl)c3Cl)c(CCC#N)cc2c2c1cc([C@H]1[C@H]3C[C@H](CN(c4cc(C(F)F)ccn4)C3)N1C(=O)C1CC1)n2[C@H]1[C@H]2CN[C@@H]1C2 (atropisomer, axis not shown; (Ra)) [Example 89, 3-((Ra)-1-((1R,4R,5S)-2-azabicyclo[2.1.1]hexan-5-yl)-2-((1S,5R,7R)-6-(cyclopropanecarbonyl)-3-(4-(difluoromethyl)pyridin-2-yl)-3,6-diazabicyclo[3.2.1]octan-7-yl)-7-(2,3-dichlorophenyl)-6-fluoro-4-methyl-1H-pyrrolo[3,2-c]quinolin-8-yl)propanenitrile]
Papp A→B at 120 min, 50 μM [1]: ≤ 5 nm/s
G12V_exchange (KRAS_G12V exchange assay IC50) (KRAS G12V): †
G12D_exchange (KRAS_G12D exchange assay IC50) (KRAS G12D): †

Cc1csc(N2C[C@@H]3C[C@H](C2)N(C(=O)C2CC2)[C@H]3c2cc3c(C)nc4c(F)c(-c5cccc(Cl)c5Cl)c(CCC#N)cc4c3n2[C@H]2[C@H]3CN[C@@H]2C3)n1 (atropisomer, axis not shown; (Ra)) [Example 90, 3-((Ra)-1-((1R,4R,5S)-2-azabicyclo[2.1.1]hexan-5-yl)-2-((1S,5R,7R)-6-(cyclopropanecarbonyl)-3-(4-methylthiazol-2-yl)-3,6-diazabicyclo[3.2.1]octan-7-yl)-7-(2,3-dichlorophenyl)-6-fluoro-4-methyl-1H-pyrrolo[3,2-c]quinolin-8-yl)propanenitrile]
Papp A→B at 120 min, 50 μM [1]: ≤ 5 nm/s
G12V_exchange (KRAS_G12V exchange assay IC50) (KRAS G12V): †
G12D_exchange (KRAS_G12D exchange assay IC50) (KRAS G12D): †

Reference: patent US20250195536A1, “BICYCLOOCTANE KRAS INHIBITORS” (Incyte Corporation, priority 2023, published 2025)
